Counter-ions that a name gives are not always drawn.
How the values were obtained:
Assay type in all cases: in vivo
Lolium [1] = assay: Post-emergence test/greenhouse; conditions: greenhouse, after three weeks
Protocol: (§1) Post-emergence Test/greenhouse Solvent: 5 parts by weight of acetone Emulsifier: 1 part by weight of alkylaryl polyglycol ether To produce a suitable preparation of active compound, 1 part by weight of active compound is mixed with the stated amount of solvent, the stated amount of emulsifier is added and the concentrate is diluted with water to the desired concentration. Test plants which have a height of 5-15 cm are sprayed with the preparation of active compound such that the particular amounts of active compound desired are applied per unit area. The concentration of the spray liquor is chosen so that the particular amounts of active compound desired are applied in 500 l of water/ha. After three weeks, the degree of damage to the plants is assessed in % damage in comparison to the development of the untreated control. The figures denote: 0%=no effect (like untreated control) 100% total destruction

Wheat [2] = assay: Post-emergence test/greenhouse; conditions: greenhouse; for degree of damage to the plants (% damage in comparison to the untreated control): Wheat, after three weeks; for compatibility with crop plants (wheat), in words: sodium salt of (I) at 60 g/ha
Protocol: as §1

Avena [3] = assay: Post-emergence test/greenhouse; conditions: greenhouse, after three weeks
Protocol: as §1

Agropyron [4] = assay: Post-emergence test/greenhouse; conditions: greenhouse, after three weeks
Protocol: as §1

Alopecurus [5] = assay: Post-emergence test/greenhouse; conditions: greenhouse, after three weeks
Protocol: as §1

Bromus [6] = assay: Post-emergence test/greenhouse; conditions: greenhouse, after three weeks
Protocol: as §1

[7] = test system: weeds, such as, for example, Agropyron, Alopecurus, Avena, Bromus and Lolium; assay: Post-emergence test/greenhouse, summary for weeds; conditions: greenhouse
Protocol: Post-emergence Test/greenhouse Solvent: 5 parts by weight of acetone Emulsifier: 1 part by weight of alkylaryl polyglycol ether To produce a suitable preparation of active compound, 1 part by weight of active compound is mixed with the stated amount of solvent, the stated amount of emulsifier is added and the concentrate is diluted with water to the desired concentration. Test plants which have a height of 5-15 cm are sprayed with the preparation of active compound such that the particular amounts of active compound desired are applied per unit area. The concentration of the spray liquor is chosen so that the particular amounts of active compound desired are applied in 500 l of water/ha. After three weeks, the degree of damage to the plants is assessed in % damage in comparison to the development of the untreated control. […] [“ai.”=“active ingredient”].

Amaranthus = assay: Pre-emergence test/greenhouse; conditions: 15 g ai./ha, greenhouse, after three weeks
Protocol: (§2) Pre-emergence Test/greenhouse Solvent: 5 parts by weight of acetone Emulsifier: 1 part by weight of alkylaryl polyglycol ether To produce a suitable preparation of active compound, 1 part by weight of active compound is mixed with the stated amount of solvent, the stated amount of emulsifier is added and the concentrate is diluted with water to the desired concentration. Seeds of the test plants are sown in normal soil. After about 24 hours, the soil is sprayed with the preparation of active compound such that the particular amount of active compound desired is applied per unit area. The concentration of the spray liquor is chosen so that the particular amount of active compound desired is applied in 500 litres of water per hectare. After three weeks, the degree of damage to the plants is tested in % damage in comparison to the development of the untreated control. The figures denote: 0% no effect (like untreated control) 100%=total destruction

Wheat [8] = assay: Pre-emergence test/greenhouse; conditions: greenhouse; for degree of damage to the plants (% damage in comparison to the untreated control): Wheat, after three weeks
Protocol: as §2

Avena [9] = assay: Pre-emergence test/greenhouse; conditions: greenhouse, after three weeks
Protocol: as §2

Agropyron [10] = assay: Pre-emergence test/greenhouse; conditions: 15 g ai./ha, greenhouse, after three weeks
Protocol: as §2

Poa = assay: Pre-emergence test/greenhouse; conditions: 15 g ai./ha, greenhouse, after three weeks
Protocol: as §2

Sinapis = assay: Pre-emergence test/greenhouse; conditions: 15 g ai./ha, greenhouse, after three weeks
Protocol: as §2

Alopecurus [11] = assay: Pre-emergence test/greenhouse; conditions: greenhouse, after three weeks
Protocol: as §2

Bromus [12] = assay: Pre-emergence test/greenhouse; conditions: greenhouse, after three weeks
Protocol: as §2

[13] = test system: weeds, such as, for example, Agropyron, Alopecurus, Avena, Bromus, Lolium, Poa, Setaria and Sinapis; assay: Pre-emergence test/greenhouse, summary for weeds; conditions: greenhouse
Protocol: as §2, with “control.” for “control. The figures denote: 0% no effect (like untreated control) 100%=total destruction”

Lolium [14] = assay: Pre-emergence test/greenhouse; conditions: 500 g ai./ha, greenhouse, after three weeks
Protocol: as §2

Setaria = assay: Pre-emergence test/greenhouse; conditions: 500 g ai./ha, greenhouse, after three weeks
Protocol: as §2

SMILES	degree of damage to the plants (% damage in comparison to the untreated control) (Lolium [1]; 60 g ai./ha)	degree of damage to the plants (% damage in comparison to the untreated control) (Wheat [2]; 60 g ai./ha)	compatibility with crop plants (wheat), in words (Wheat [2])	degree of damage to the plants (% damage in comparison to the untreated control) (Avena [3]; 60 g ai./ha)	degree of damage to the plants (% damage in comparison to the untreated control) (Agropyron [4]; 60 g ai./ha)	degree of damage to the plants (% damage in comparison to the untreated control) (Alopecurus [5]; 60 g ai./ha)	degree of damage to the plants (% damage in comparison to the untreated control) (Bromus [6]; 60 g ai./ha)	herbicidal activity (in words, compared with the sodium salt of (I)) [7]	degree of damage to the plants (% damage in comparison to the untreated control) (Amaranthus)	degree of damage to the plants (% damage in comparison to the untreated control) (Wheat [8]; 15 g ai./ha)	degree of damage to the plants (% damage in comparison to the untreated control) (Avena [9]; 15 g ai./ha)	degree of damage to the plants (% damage in comparison to the untreated control) (Agropyron [10])	degree of damage to the plants (% damage in comparison to the untreated control) (Poa)	degree of damage to the plants (% damage in comparison to the untreated control) (Sinapis)	herbicidal activity (in words, compared with the sodium salt of (I)) [13]	further results
CCCOc1nn(C(=O)NS(=O)(=O)c2ccccc2C(=O)OC)c(=O)n1CC [(F), 2-(2-Methoxycarbonyl-phenylsulphonylaminocarbonyl)-4-ethyl-5-propoxy-2,4-dihydro-3H-1,2,4-triazol-3-one]	30%	20%	not entirely compatible with wheat	40%	50%	50%	50%	considerably weaker herbicidal activity	70%	0%	0%	0%	0%	70%	considerably weaker herbicidal activity	degree of damage to the plants (% damage in comparison to the untreated control) (Alopecurus [11]; 15 g ai./ha): 40%; degree of damage to the plants (% damage in comparison to the untreated control) (Bromus [12]; 15 g ai./ha): 20%
CCCCOc1nn(C(=O)NS(=O)(=O)c2ccccc2C(=O)OC)c(=O)n1C [(A), 2-(2-Methoxycarbonyl-phenylsulphonylaminocarbonyl)-4-methyl-5-butoxy-2,4-dihydro-3H-1,2,4-triazol-3-one]	0%	0%		50%	0%	0%	0%	considerably weaker herbicidal activity							considerably weaker herbicidal activity	degree of damage to the plants (% damage in comparison to the untreated control) (Lolium [14]): 0%; degree of damage to the plants (% damage in comparison to the untreated control) (Wheat [8]; 500 g ai./ha): 0%; degree of damage to the plants (% damage in comparison to the untreated control) (Setaria): 0%; degree of damage to the plants (% damage in comparison to the untreated control) (Avena [9]; 500 g ai./ha): 0%; degree of damage to the plants (% damage in comparison to the untreated control) (Alopecurus [11]; 500 g ai./ha): 20%; degree of damage to the plants (% damage in comparison to the untreated control) (Bromus [12]; 500 g ai./ha): 30%
CCOc1nn(C(=O)NS(=O)(=O)c2ccccc2C(=O)OC)c(=O)n1C [(B), 2-(2-Methoxycarbonyl-phenylsulphonylaminocarbonyl)-4-methyl-5-ethoxy-2,4-dihydro-3H-1,2,4-triazol-3-one-sodium salt]			not entirely compatible with wheat						70%	40%	60%	40%	70%	70%		degree of damage to the plants (% damage in comparison to the untreated control) (Lolium [1]; 30 g ai./ha): 90%; degree of damage to the plants (% damage in comparison to the untreated control) (Wheat [2]; 30 g ai./ha): 60%; degree of damage to the plants (% damage in comparison to the untreated control) (Avena [3]; 30 g ai./ha): 90%; degree of damage to the plants (% damage in comparison to the untreated control) (Agropyron [4]; 30 g ai./ha): 90%; degree of damage to the plants (% damage in comparison to the untreated control) (Alopecurus [5]; 30 g ai./ha): 90%; degree of damage to the plants (% damage in comparison to the untreated control) (Bromus [6]; 30 g ai./ha): 80%; compatibility with crop plants (wheat), in words (Wheat [8]; sodium salt of (I) at 15 g/ha to 60 g/ha): not entirely compatible with wheat
CCCOc1nn(C(=O)NS(=O)(=O)c2ccccc2C(=O)OCC)c(=O)n1C [(D), 2-(2-Ethoxycarbonyl-phenylsulphonylaminocarbonyl)-4-methyl-5-propoxy-2,4-dihydro-3H-1,2,4-triazol-3-one]	30%	0%		20%	70%		80%	considerably weaker herbicidal activity							considerably weaker herbicidal activity	
COC(=O)c1ccccc1S(=O)(=O)NC(=O)n1nc(OC(C)C)n(C)c1=O.[Na] [(C), 2-(2-Methoxycarbonyl-phenylsulphonylaminocarbonyl)-4-methyl-5-isopropoxy-2,4-dihydro-3H-1,2,4-triazol-3-one-sodium salt]	70%	0%		50%	60%	70%	70%	considerably weaker herbicidal activity							considerably weaker herbicidal activity	
CCCOn1c(C)nn(C(=O)NS(=O)(=O)c2ccccc2C(=O)OC)c1=O [(E), 2-(2-Methoxyxcarbonyl-phenylsulphonylaminocarbonyl)-4-propoxy-5-methyl-2,4-dihydro-3H-1,2,4-triazol-3-one]								considerably weaker herbicidal activity							considerably weaker herbicidal activity	degree of damage to the plants (% damage in comparison to the untreated control) (Lolium [1]; 250 g ai./ha): 50%; degree of damage to the plants (% damage in comparison to the untreated control) (Wheat [2]; 250 g ai./ha): 0%; degree of damage to the plants (% damage in comparison to the untreated control) (Avena [3]; 250 g ai./ha): 0%; degree of damage to the plants (% damage in comparison to the untreated control) (Alopecurus [5]; 250 g ai./ha): 70%; degree of damage to the plants (% damage in comparison to the untreated control) (Bromus [6]; 250 g ai./ha): 50%
